This is an account of results in PMC10783014, “Structure-based virtual screening and in vitro validation of inhibitors of cyclic dinucleotide phosphodiesterases ENPP1 and CdnP” (Microbiology Spectrum, 2023).

Converted amounts (≈) assume the structure as drawn. “And” between values parts separate entries of the source, which are not always exact repeats. Identical values can stand only once. Like-named read-outs stand apart in the source and are kept apart here.

In one assay the test system is Vero cells. Description: Vero cell cytotoxicity, resazurin dye reduction assay. The class given is cell-based, African green monkey.
Assay [1] has as its target T1, M.tb CdnP (Mycobacterium tuberculosis, UniProt P71615). Description: biochemical.
The next assay addresses T2, human ENPP1 (Homo sapiens, UniProt P22413).
T2 construct: purchased Origene
T2 sequence (P22413 1-925): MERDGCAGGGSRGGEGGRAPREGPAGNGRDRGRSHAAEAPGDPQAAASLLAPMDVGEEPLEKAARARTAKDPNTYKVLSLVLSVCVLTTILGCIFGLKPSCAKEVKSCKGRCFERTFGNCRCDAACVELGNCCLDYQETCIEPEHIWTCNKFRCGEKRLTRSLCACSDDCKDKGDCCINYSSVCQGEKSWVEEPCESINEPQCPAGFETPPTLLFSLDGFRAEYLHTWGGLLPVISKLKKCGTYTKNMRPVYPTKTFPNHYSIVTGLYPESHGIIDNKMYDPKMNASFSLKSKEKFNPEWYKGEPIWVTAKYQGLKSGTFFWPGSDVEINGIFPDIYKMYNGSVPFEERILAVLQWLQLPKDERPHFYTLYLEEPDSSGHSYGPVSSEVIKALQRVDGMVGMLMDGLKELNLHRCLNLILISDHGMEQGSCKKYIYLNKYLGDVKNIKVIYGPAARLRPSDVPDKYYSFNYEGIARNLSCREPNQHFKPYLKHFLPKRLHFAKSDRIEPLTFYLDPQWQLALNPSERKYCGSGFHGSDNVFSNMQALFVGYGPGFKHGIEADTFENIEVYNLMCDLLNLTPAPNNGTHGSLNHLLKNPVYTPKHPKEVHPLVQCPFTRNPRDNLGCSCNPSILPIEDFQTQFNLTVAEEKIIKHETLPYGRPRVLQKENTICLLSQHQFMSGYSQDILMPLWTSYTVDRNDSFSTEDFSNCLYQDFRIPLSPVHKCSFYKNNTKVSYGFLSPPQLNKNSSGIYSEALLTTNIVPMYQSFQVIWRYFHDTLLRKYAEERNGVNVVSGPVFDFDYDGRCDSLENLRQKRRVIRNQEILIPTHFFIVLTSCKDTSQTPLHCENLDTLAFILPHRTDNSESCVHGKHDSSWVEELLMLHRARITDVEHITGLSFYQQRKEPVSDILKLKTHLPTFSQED
Description: Luminescence-based AMP-Glo ENPP1 enzyme inhibition assay with 2′,3′-cGAMP substrate. As to conditions: 2′,3′-cGAMP 300 µM, ENPP1 5 µM. The class given is biochemical.

Assay [2] has as its system RAW-Blue IRF3 ISG reporter macrophages. Description: IRF3 induction in RAW-Blue IRF3-SEAP reporter macrophages after 2′,3′-cGAMP transfection (QUANTI-Blue). The class given is cell-based, mouse. As to conditions: 165 µM E-3 plus 1 nM 2′,3′-cGAMP, 24 h.
Assay [3] concerns primary human monocyte-derived macrophages (hMDMs). Description: IFN-β release by human monocyte-derived macrophages after 2′,3′-cGAMP transfection (ELISA). The class given is cell-based.
Assay [4] concerns the target T1, M.tb CdnP. The assay is classed as biochemical.
The mark [5] stands for this setting: Vero cell growth inhibition, 48 h then resazurin overnight.
Where [6] appears, read: Vero cell growth inhibition, 48 h then resazurin overnight, read-out: IC50 Vero cells.
The mark [7] stands for this setting: Chlorocebus sabaeus, Vero, 48 h, Vero cell growth inhibition, 48 h then resazurin overnight, read-out: IC50 Vero cells.
The mark [8] stands for this setting: 1 nM 2′,3′-cGAMP in the presence of 165 µM E-3, 24 h.

T1 sequence (P71615 whole entry, looked up): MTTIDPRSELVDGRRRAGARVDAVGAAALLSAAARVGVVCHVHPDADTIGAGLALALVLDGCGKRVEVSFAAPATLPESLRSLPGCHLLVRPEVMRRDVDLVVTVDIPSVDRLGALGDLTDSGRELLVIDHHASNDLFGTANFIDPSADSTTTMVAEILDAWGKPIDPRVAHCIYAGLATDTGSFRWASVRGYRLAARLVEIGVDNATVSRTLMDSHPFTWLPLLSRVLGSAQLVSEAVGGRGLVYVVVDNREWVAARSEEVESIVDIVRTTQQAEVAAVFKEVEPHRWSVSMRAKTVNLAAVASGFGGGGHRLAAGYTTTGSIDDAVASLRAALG

In the case of `O=C(C[N+]12CN3CN(CN(C3)C1)C2)c1ccc2ccccc2c1` [Inhibitor C-5], in the assay with Vero cells (setting [5]), the “IC50 Vero cells” value was 60 µg/mL. Moreover, the IC50 with Vero cells (setting [6]) was 154 µM; at M.tb CdnP [1] (read-out: IC50 CdnP), 28.8 µM; at human ENPP1 it was greater than 257 µM. The “IC50 CdnP” value on M.tb CdnP [1] is recorded as 28.8 (11.2) µg/mL. Further, the “IC50 ENPP1” value against human ENPP1 is greater than 100 µg/mL.
Turning to `CC(OCCCCOC(C)n1cnc2c(=O)nc[nH]c21)n1cnc2c(=O)nc[nH]c21` (stereo not drawn) [Inhibitor C-13], the 50% inhibitory concentration (IC50) in the assay on Vero cells (setting [7]) was greater than 100 µg/mL; in the assay with Vero cells (setting [6]) it was greater than 241 µM; against M.tb CdnP [1] (IC50 CdnP), 9.66 µM and 9.65 µM; on human ENPP1, greater than 241 µM.
For `Cc1c2cc[n+](C)cc2c(COC2OC(CO)C(O)C2O)c2c3ccccc3n(C)c12` (stereo not drawn) [Inhibitor C-29], the half-inhibitory concentration (IC50) in the assay on Vero cells (setting [7]) is greater than 100 µg/mL; in the assay on Vero cells (setting [6]) it was greater than 237 µM; on M.tb CdnP [1] (IC50 CdnP), 14.2 µM; against human ENPP1, 19.4 µM.
Consider `O=S(=O)(NN=c1nc(N2CCCC2)[nH]c(N2CCCC2)n1)c1ccccc1` [Inhibitor C-33], for which the concentration for half-maximal inhibition (IC50) is greater than 100 µg/mL with Vero cells (setting [7]); greater than 257 µM with Vero cells (setting [6]); 18.8 µM and 18.7 µM against M.tb CdnP [1] (IC50 CdnP); 60.5 µM and 60.3 µM at human ENPP1.
As for `Cc1ccc(S(=O)(=O)NN=c2nc(N3CCCC3)[nH]c(N3CCCC3)n2)cc1` [Inhibitor C-34], the IC50 in the assay on Vero cells (setting [7]) is greater than 100 µg/mL; in the assay with Vero cells (setting [6]), greater than 247 µM; on M.tb CdnP [1] (IC50 CdnP) it was 13.1 µM; against human ENPP1 it was 63.3 µM and 63.4 µM.
Consider `NNc1nc(N2CCCCC2)c2[nH]cnc2n1` [Inhibitor C-76], for which the “IC50 Vero cells” value in the assay with Vero cells (setting [5]) is greater than 100 µg/mL. Moreover, the half-maximal inhibitory concentration (IC50) in the assay on Vero cells (setting [6]) was greater than 429 µM; at M.tb CdnP [1] (read-out: IC50 CdnP), 42.9 µM; against human ENPP1 it was greater than 429 µM. The “IC50 CdnP” value on M.tb CdnP [1] is given as 42.9 (10) µg/mL. Moreover, the “IC50 ENPP1” value at human ENPP1 is greater than 100 µg/mL.
`Cc1ccc(Nc2nc(N)nc(Nc3ccc4ccccc4c3)n2)cc1` [Inhibitor E-3]: the “IRF induction (SEAP signal)” value in assay [2] is recorded as 1.1 A655 units. Moreover, in assay [2], the “fold increased IRF signal versus cGAMP alone” value came out at 2.75 fold. Further, the IC50 in the assay on Vero cells (setting [7]) is greater than 100 µg/mL; in the assay with Vero cells (setting [6]), greater than 264 µM; against human ENPP1 it was 26.4 µM and 29.2 µM. Also, the IFN-β release worked out at 95 pg/mL in assay [3] (setting [8]) and 10 pg/mL in assay [3] (165 µM E-3 alone, no cGAMP). In addition, the “fold increase in IFN-β release versus cGAMP alone” value in assay [3] (setting [8]) turned out to be 2.1 fold.
As to `c1cc2c(cc1C(N1CCNCC1)N1CCNCC1)OCO2` [Inhibitor E-12], the “IC50 Vero cells” value in the assay with Vero cells (setting [5]) was greater than 100 µg/mL. The figures for the IC50 in the assay with Vero cells (setting [6]) and on human ENPP1 were greater than 329 µM and 41.1 µM, respectively. Also, the “IC50 ENPP1” value at human ENPP1 amounted to 12.5 µg/mL (≈ 41.1 µM).
Regarding `O=C(Nc1n[nH]c(NC(=O)c2ccccc2)n1)c1ccccc1` [Inhibitor E-27], the results for the 50% inhibitory concentration (IC50) in the assay on Vero cells (setting [7]), in the assay with Vero cells (setting [6]) and against human ENPP1 were greater than 100 µg/mL, greater than 326 µM and 16.3 µM, respectively.
Take `NC1CC2NC3CCCCC3NC2CC1N` (stereo not drawn) [Inhibitor E-37]: the IC50 with Vero cells (Chlorocebus sabaeus, Vero, 48 h, read-out: IC50 Vero cells, Vero cell growth inhibition, 48 h then resazurin overnight) is greater than 100 µg/mL; with Vero cells (read-out: IC50 Vero cells, Vero cell growth inhibition, 48 h then resazurin overnight) it was greater than 446 µM; at human ENPP1 it was 44.6 µM.
For the molecule `O=C(NNc1nc(NC2CCCCC2)nc(NC2CCCCC2)n1)c1ccccc1` [Inhibitor E-60], the IC50 in the assay with Vero cells (setting [7]) was greater than 100 µg/mL; in the assay on Vero cells (setting [6]), greater than 245 µM; against human ENPP1 it was 9.8 µM and 9.77 µM.
Consider c-di-AMP, for which, on M.tb CdnP [4], the Michaelis constant (Km) was determined as 51.4 µM and the “Vmax for CdnP” value stood at 0.5664 µM/min.
